Tested on: platelets
Test: measurement of platelet function using the thrombus monitoring system C (microchip 4, citrated whole blood mixed with ADP under flow)
Type: cell-based
Settings: for time after the beginning of the measurement at which an obvious platelet aggregate was formed in the thrombus formation chamber: collagen/PT reagent coated chamber
Description: The stirring section 413 was in the shape of a circle having a diameter of […] and narrowing in fan-like fashion in the direction toward the downstream, and its depth was 1.2 mm. The stirring bar 417 was a stirring bar in the shape of a cylinder having a length of 2 mm and a diameter of 1 mm, whose surface was coated with nickel.
As the thrombus-inducing agent, 24 μL of a mixture of collagen type I (Nitta Gelatin Inc.) and PT reagent (Sysmex Corporation) was applied in a square shape sizing 1 cm×1 cm, and dried under reduced pressure at −0.08 MPa for 3 hours. The coating with the thrombus-inducing material was carried out such that the merged channel 403 was not passing the center of the square area on which the thrombus-inducing material was applied, that is, such that the merged channel 403 was passing 2.5 mm away from an edge of the square, when the substrate 400 and the substrate 410 were bonded to each other. As the collagen type I, one having a concentration of 3 mg/ml was used. As the PT reagent, one prepared by dissolving 1 vial of PT reagent manufactured by Sysmex Corporation in 2 ml of purified water and dialyzing the resulting solution against purified water overnight, followed by mixing the resultant at a ratio of 1:1 was used.
To the blood reservoir 433, the first pump 420 was connected, and the first connection nozzle 435 and the second connection nozzle 436 were connected to the second pump 421 and the third pump 422, respectively.
Mineral oil was filled in the first pump 420; purified water and 1 μM or 2 μM ADP solution were filled in the second pump 421; and 0.5 M EDTA (pH 10) solution was filled in the third pump 422.
Blood prepared by mixing the blood immediately after collection with 3.2% sodium citrate solution at a volume ratio between the blood and the sodium citrate solution being 9:1 was filled in the blood reservoir 433.
The programs executed for the first pump 420, second pump 421 and the third pump 422 were the same with those in Example 7 (Table 3). […]

## Nc1ncnc2c1ncn2[C@@H]1O[C@H](COP(=O)(O)OP(=O)(O)O)[C@@H](O)[C@H]1O [ADP, adenosine diphosphate]
1 μM ADP solution in second pump
  time after the beginning of the measurement at which an obvious platelet aggregate was formed in the thrombus formation chamber: 15 min
1 μM or 2 μM ADP in second pump
  increase in pressure due to platelet aggregate (pressure sensor): no increase in pressure occurred
2 μM ADP solution in second pump
  time after the beginning of the measurement at which an obvious platelet aggregate was formed in the thrombus formation chamber: 10 min
